Experimental data reported in publication PMC7942396, “Drug Repurposing Screen for Compounds Inhibiting the Cytopathic Effect of SARS-CoV-2” (Frontiers in Pharmacology, 2021).
Where a name gives a salt, the structure may show the parent alone. Read-outs that look alike come from different tables or passages of the source.

Experiments:
[1] = system: SARS-CoV-2 (USA_WA1/2020); assay: microbe, parasite or virus in culture; format: cell-based
in vitro = details: African green monkey
[2] = Severe acute respiratory syndrome coronavirus 2, Vero C1008, SARS-CoV-2 CPE assay, Vero E6 cells, confirmed anti-SARS-CoV-2 compounds, read-out: CPE EC50
[3] = Severe acute respiratory syndrome coronavirus 2, Vero C1008, SARS-CoV-2 CPE assay, Vero E6 cells, efficacy, read-out: CPE % Efficacy
[4] = Severe acute respiratory syndrome coronavirus 2, Vero C1008, SARS-CoV-2 CPE assay, Vero E6 cells, read-out: CPE % Efficacy
[5] = Severe acute respiratory syndrome coronavirus 2, Vero C1008, SARS-CoV-2 CPE assay, Vero E6 cells, read-out: CPE EC50
[6] = Severe acute respiratory syndrome coronavirus 2, Vero C1008, read-out: CPE % Efficacy
[7] = Severe acute respiratory syndrome coronavirus 2, Vero C1008, read-out: CPE EC50 (uM)
[8] = Severe acute respiratory syndrome coronavirus 2, Vero C1008, 72 h, read-out: CPE EC50
[9] = Severe acute respiratory syndrome coronavirus 2, Vero C1008, […], DMSO 0%, no-virus control 100%, hit confirmation, read-out: CPE % efficacy

Row | Structure (SMILES) | EC50 [1, 2] [µM] | Emax [1, 3] [%] | CC50 (in vitro) [µM] | cytotoxicity (in vitro) [%] | Emax [1, 4] [%] | EC50 [1, 5] [µM] | cytotoxicity at 72 h (in vitro) [%] | further results
1 | Cc1ccc(-c2cc(C(F)(F)F)nn2-c2ccc(S(N)(=O)=O)cc2)cc1 [Celecoxib] | 11.2 | 79.2 | 15.8 | 9 | – | – | – | –
2 | COc1ccc2cc1Oc1ccc(cc1)C[C@H]1c3c(cc4c(c3Oc3cc5c(cc3OC)CCN(C)[C@@H]5C2)OCO4)CCN1C [Cepharanthine] | 1.41 | 91.3 | 11.2 | 105 | – | – | – | –
3 | CN1CCN(C(c2ccccc2)c2ccc(Cl)cc2)CC1 (centres unmarked) [Chlorcyclizine] | – | – | – | – | 67.4 | 12.6 | 18 | CC50 at 72 h (in vitro): 22.4 µM
4 | Oc1c(Cl)cc(Cl)c2cccnc12 [Chloroxine] | 11.2 | 64.9 | 7.08 | 61.5 | – | – | – | –
5 | CN(C)CCOC(C)(c1ccccc1)c1ccc(Cl)cc1 (centres unmarked) [Chlorphenoxamine] | 6.31 | 75.3 | – | – | – | – | 36.9 | CC50 at 72 h (in vitro): 11.2 µM
6 | CN(C)CCCN1c2ccccc2Sc2ccc(Cl)cc21 [Chlorpromazine] | – | – | 11.2 | 45.6 | 102 | 12.6 | – | –
7 | Cc1cc(C2CCCCC2)n(O)c(=O)c1 [Ciclopirox] | 8.91 | 63.4 | – | – | – | – | 56.1 | CC50 at 72 h (in vitro): 2.51 µM
8 | Oc1c(I)cc(Cl)c2cccnc12 [Clioquinol] | 6.31 | 55.1 | – | – | – | – | 62.2 | CC50 at 72 h (in vitro): 3.16 µM
9 | CN(C)CCCN1c2ccccc2CCc2ccc(Cl)cc21 [Clomipramine hydrochloride] | – | 91.6 | – | 33.2 | – | – | – | –
10 | CN(C)CCC=C1c2ccccc2C=Cc2ccccc21 [Cyclobenzaprine hydrochloride] | – | – | – | 23.9 | – | – | – | Emax [1, 6]: 77.2%; EC50 [1, 7]: 12.6 µM
11 | CC1CCCCN1CCCOC(=O)c1ccc(OC2CCCCC2)cc1 (centres unmarked) [Cyclomethycaine] | 8.91 | 79.7 | – | – | – | – | 9.6 | CC50 at 72 h (in vitro): 17.8 µM
12 | CN1CCC(=C2c3ccccc3C=Cc3ccccc32)CC1 [Cyproheptadine hydrochloride] | – | 50 | 12.6 | 20.2 | – | – | – | –
13 | CCCCCCCCn1cc(CC(N)=O)c2cc(-c3cccc(C)c3)ccc21 [Cysmethynil] | 11.2 | 89.1 | – | – | – | – | 106 | –
14 | CCn1c(=O)c(-c2cc(NC(=O)Nc3ccccc3)c(F)cc2Br)cc2cnc(NC)cc21 [DCC-2618] | – | – | – | – | 65.4 | 12.6 | 48.5 | CC50 at 72 h (in vitro): 11.2 µM
15 | CN(C)[C@@H](CCOc1cccc2ccccc12)c1ccccc1 [Dapoxetine] | 10 | 82.6 | – | – | – | – | 32 | –
16 | CCN(CC)CCN(Cc1ccc(-c2ccc(C(F)(F)F)cc2)cc1)C(=O)Cn1c(SCc2ccc(F)cc2)nc(=O)c2c1CCC2 [Darapladib] | 2.82 | 75.1 | 11.2 | 102 | – | – | – | –
17 | CNCCCN1c2ccccc2CCc2ccccc21 [Desipramine hydrochloride] | 11.2 | 43.7 | 5.01 | 9.2 | – | – | – | –
18 | CCCCCCC(C)(C)c1cc(O)c2c(c1)OC(C)(C)[C@H]1CC=C(CO)C[C@H]21 [Dexanabinol, reference compound] | – | – | – | < 30 | – | – | – | EC50 [1, 8]: 10 µM; Emax [1, 9]: 111%
19 | CCCCOc1cc(C(=O)NCCN(CC)CC)c2ccccc2n1 [Dibucaine] | – | – | – | – | 61.8 | 12.6 | 0 | –
20 | CC(C(O)c1ccccc1)N(C)CCOC(c1ccccc1)c1ccccc1 (centres unmarked) [Difeterol, reference compound] | – | – | – | – | – | – | < 30 | EC50 [1, 8]: 10 µM; Emax [1, 9]: 113%
21 | CC(C)[C@@]1(NC(=O)[C@@H]2C[C@@H]3c4cccc5[nH]cc(c45)C[C@H]3N(C)C2)O[C@@]2(O)[C@@H]3CCCN3C(=O)[C@H](Cc3ccccc3)N2C1=O [Dihydroergocristine] | – | – | 15.8 | 11.5 | 32 | 14.1 | – | –
22 | CN(C)CC/C=C1\c2ccccc2CSc2ccccc21 [Dosulepin hydrochloride] | – | – | 12.6 | 17.2 | 30.8 | 14.1 | – | –
23 | COc1cc2nc(N3CCN(C(=O)C4COc5ccccc5O4)CC3)nc(N)c2cc1OC (centres unmarked) [Doxazosin mesylate] | – | – | – | 0 | 86.6 | 14.1 | – | –
24 | O=c1c2ccccc2[se]n1-c1ccccc1 [Ebselen] | 11.2 | 38.1 | – | – | – | – | 0 | –

Row | Structure (SMILES) | EC50 [1, 2] [µM] | Emax [1, 3] [%] | CC50 (in vitro) [µM] | cytotoxicity (in vitro) [%] | Emax [1, 4] [%] | EC50 [1, 5] [µM] | cytotoxicity at 72 h (in vitro) [%] | further results
25 | O=C1Nc2ccc(Cl)cc2[C@@](C#CC2CC2)(C(F)(F)F)O1 [Efavirenz] | – | – | – | 24.3 | 90.6 | 14.1 | – | –
26 | CCNCCc1ccc(CN(CC)c2cc(OC)ccc2[C@@H]2CCc3cc(O)ccc3C2)cc1 [Elacestrant] | 3.98 | 104 | – | – | – | – | 104 | CC50 at 72 h (in vitro): 12.6 µM
27 | CSc1ccc(C(=O)/C=C/c2cc(C)c(OC(C)(C)C(=O)O)c(C)c2)cc1 [Elafibranor] | – | – | – | – | 55.7 | 19.9 | 0 | –
28 | Fc1ccc(C(c2ccc(F)cc2)N2CCN(C/C=C/c3ccccc3)CC2)cc1 [Flunarizine, reference compound] | – | – | – | < 30 | – | – | – | Emax [1, 9]: 94.1%
29 | CC(CN1c2ccccc2Sc2ccc(S(=O)(=O)N(C)C)cc21)N(C)C (centres unmarked) [Fonazine] | 11.2 | 36.6 | – | – | – | – | 0 | –
30 | Cc1ccc(NC(=O)Nc2cc(C(F)(F)F)ccc2F)cc1Nc1ccc2c(c1)NC(=O)/C2=C\c1ccc[nH]1 [GNF-5837] | 3.16 | 84 | 8.91 | 61.4 | – | – | – | –
31 | CCCc1cc(C)[nH]c(=O)c1CNC(=O)c1cc(-c2ccnc(N3CCN(C)CC3)c2)cc2c1cnn2C(C)C [GSK-343] | – | – | 10 | 16.6 | 51.7 | 14.1 | – | –
32 | CCn1c(-c2nonc2N)nc2cnc(Oc3cccc(NC(=O)c4ccc(OCCN5CCOCC5)cc4)c3)cc21 [GSK-269962A] | 7.94 | 41.8 | 2 | 56.8 | – | – | – | –
33 | CCc1ccc(N(CC(C)C)S(=O)(=O)c2ccc(OCC3CCOCC3)c(CO)c2)cc1 [GSK-2981278] | – | – | – | – | 36 | 14.1 | 51.1 | CC50 at 72 h (in vitro): 12.6 µM
34 | CC(=O)OC[C@]12C[C@H](OC(=O)CC(C)C)C(C)=C[C@H]1O[C@@H]1[C@H](O)[C@@H](O)[C@@]2(C)[C@]12CO2 [HT-2 Toxin] | – | – | 0.13 | 98 | – | – | – | CPE % Efficacy [1]: 32.4%; EC50 ([1]; read-out: CPE EC50): 0.0226 µM
35 | CCCCN(CCCC)CCC(O)c1cc2c(Cl)cc(Cl)cc2c2cc(C(F)(F)F)ccc12 (centres unmarked) [Halofantrine] | 5.62 | 73.4 | – | 37.6 | – | – | – | –
36 | CN1CCCN(C(c2ccccc2)c2ccc(Cl)cc2)CC1 (centres unmarked) [Homochlorcyclizine] | 10 | 84.3 | 12.6 | 34.2 | – | – | – | –
37 | COc1cc(O)c2c(c1)[C@H]1O[C@@H]1C[C@H](O)[C@H](O)C(=O)/C=C\C[C@H](C)OC2=O [Hypothemycin] | – | – | 12.6 | 60.1 | 81.2 | 12.6 | – | –
38 | COc1cc(C(C)=O)ccc1OCCCN1CCC(c2noc3cc(F)ccc23)CC1 [Iloperidone] | – | – | – | – | 108 | 12.6 | 16.4 | CC50 at 72 h (in vitro): 15.8 µM
39 | Cc1ccc(NC(=O)c2ccc(CN3CCN(C)CC3)cc2)cc1Nc1nccc(-c2cccnc2)n1 [Imatinib, reference compound] | – | – | – | < 30 | – | – | – | Emax [1, 9]: 119%
40 | CN(C)CCCN1c2ccccc2CCc2ccccc21 [Imipramine] | – | – | – | 0 | 57.6 | 12.6 | – | –
41 | Cc1cn(CCN2CCN(c3ccccc3-c3cc(C#N)cc(C(=O)NCCCN4CCCC4)c3)CC2)c2ccccc12 [LLY-507] | 3.16 | 59.6 | – | – | – | – | 108 | CC50 at 72 h (in vitro): 12.6 µM
42 | O[C@H]1[C@H]2c3cc4c(cc3CN3CCC(=C[C@@H]1O)[C@H]23)OCO4 [Lycorine hydrochloride] | 0.63 | 34.6 | 3.55 | 90.6 | – | – | – | –
43 | COc1ccc(-c2csc(NC(=O)[C@H]3CCCCN3S(=O)(=O)c3ccc(C)cc3)n2)cc1 [ML277] | 10 | 45.4 | – | 0 | – | – | – | –
44 | CN1CCCCC1CCN1c2ccccc2Sc2ccc([S+](C)[O-])cc21 (centres unmarked) [Mesoridazine] | – | – | 15.8 | 16.1 | – | – | – | Emax [1, 6]: 43.5%; EC50 [1, 7]: 12.6 µM
45 | CN1CCC(CN2c3ccccc3Sc3ccccc32)C1 (centres unmarked) [Methdilazine hydrochloride, reference compound] | – | – | – | < 30 | – | – | – | EC50 [1, 8]: 10 µM; Emax [1, 9]: 86.4%
46 | Clc1ccc2c(c1)N=C(N1CCNCC1)c1ccccc1N2 [N-Desmethylclozapine] | – | – | – | – | 31.1 | 14.1 | 20.1 | CC50 at 72 h (in vitro): 10 µM
47 | Cc1c(O)cccc1C(=O)N[C@@H](CSc1ccccc1)[C@H](O)CN1C[C@H]2CCCC[C@H]2C[C@H]1C(=O)NC(C)(C)C [Nelfinavir Mesylate] | 3.55 | 106 | 12.6 | 96.9 | – | – | – | –
48 | COC(=O)C1=C(C)NC(C)=C(C(=O)OCCN(C)Cc2ccccc2)C1c1cccc([N+](=O)[O-])c1 (centres unmarked) [Nicardipine] | – | – | 12.6 | 32.8 | 56.3 | 12.6 | – | –
